Assay: xn = mol fraction of the nth substance listed
Conditions: Liquid, Pycnometric method

Cn1ccnc1 [1-methylimidazole] + O=C=O
mass density [kg/m3]
Conditions | 332.4 K | 337.4 K
13050 kPa, x1 = 0.0102 | – | 568
13150 kPa, x1 = 0.0102 | – | 576
13270 kPa, x1 = 0.0102 | – | 584
13350 kPa, x1 = 0.0102 | 600 | –
13370 kPa, x1 = 0.0102 | – | 593
13490 kPa, x1 = 0.0102 | – | 601
13550 kPa, x1 = 0.0247 | 668 | –
13560 kPa, x1 = 0.0102 | 612 | –
13620 kPa, x1 = 0.0102 | – | 610
13730 kPa, x1 = 0.0247 | 675 | –
13770 kPa, x1 = 0.0102 | – | 619
13790 kPa, x1 = 0.0102 | 623 | –
13890 kPa, x1 = 0.0247 | 681 | –
13910 kPa, x1 = 0.0102 | – | 628
13960 kPa, x1 = 0.0247 | 684 | –
14040 kPa, x1 = 0.0102 | 636 | –
14080 kPa, x1 = 0.0102 | – | 638
14140 kPa, x1 = 0.0247 | 690 | –
14240 kPa, x1 = 0.0102 | – | 648
14320 kPa, x1 = 0.0102 | 649 | –
14330 kPa, x1 = 0.0247 | 696 | –
14430 kPa, x1 = 0.0102 | – | 658
14490 kPa, x1 = 0.0247 | – | 650
14520 kPa, x1 = 0.0247 | 703 | –
14560 kPa, x1 = 0.0247 | – | 653
14630 kPa, x1 = 0.0102 | – | 669
14640 kPa, x1 = 0.0102 | 663 | –
14660 kPa, x1 = 0.0247 | – | 658
14740 kPa, x1 = 0.0247 | 709 | –
14780 kPa, x1 = 0.0247 | – | 662
14850 kPa, x1 = 0.0102 | – | 680
14900 kPa, x1 = 0.0247 | – | 666
14970 kPa, x1 = 0.0247 | 716 | –
15020 kPa, x1 = 0.0247 | – | 671
15030 kPa, x1 = 0.0102 | 677 | –
15080 kPa, x1 = 0.0102 | – | 691
15140 kPa, x1 = 0.0247 | – | 675
15220 kPa, x1 = 0.0247 | 723 | –
15270 kPa, x1 = 0.0247 | – | 680
15350 kPa, x1 = 0.0102 | – | 703
15420 kPa, x1 = 0.0247 | – | 684
15450 kPa, x1 = 0.0487 | 779 | –
15480 kPa, x1 = 0.0102 | 692 | –
15480 kPa, x1 = 0.0247 | 730 | –
15560 kPa, x1 = 0.0247 | – | 689
15710 kPa, x1 = 0.0487 | 784 | –
15730 kPa, x1 = 0.0247 | – | 693
15740 kPa, x1 = 0.0102 | – | 719
15750 kPa, x1 = 0.0247 | 737 | –
15880 kPa, x1 = 0.0247 | – | 698
15920 kPa, x1 = 0.0487 | 789 | –
15960 kPa, x1 = 0.0247 | 742 | –
15970 kPa, x1 = 0.0102 | 707 | –
16050 kPa, x1 = 0.0247 | – | 703
16080 kPa, x1 = 0.0102 | – | 732
16130 kPa, x1 = 0.0487 | 794 | –
16190 kPa, x1 = 0.0247 | 747 | –
16230 kPa, x1 = 0.0247 | – | 708
16260 kPa, x1 = 0.0487 | 797 | –
16390 kPa, x1 = 0.0487 | 799 | –
16410 kPa, x1 = 0.0247 | – | 713
16430 kPa, x1 = 0.0247 | 752 | –
16450 kPa, x1 = 0.0102 | – | 745
16520 kPa, x1 = 0.0487 | 801 | –
16570 kPa, x1 = 0.0102 | 723 | –
16600 kPa, x1 = 0.0487 | – | 768
16610 kPa, x1 = 0.0247 | – | 717
16640 kPa, x1 = 0.0487 | – | 769
16650 kPa, x1 = 0.0487 | 804 | –
16720 kPa, x1 = 0.0247 | 758 | –
16730 kPa, x1 = 0.0487 | – | 770
16830 kPa, x1 = 0.0487 | 806 | –
16840 kPa, x1 = 0.0102 | – | 759
16850 kPa, x1 = 0.0487 | – | 773
16890 kPa, x1 = 0.0247 | – | 724
16910 kPa, x1 = 0.0247 | 762 | –
16960 kPa, x1 = 0.0487 | – | 775
16970 kPa, x1 = 0.0487 | 809 | –
17070 kPa, x1 = 0.0487 | – | 777
17090 kPa, x1 = 0.0247 | 766 | –
17130 kPa, x1 = 0.0487 | 811 | –
17170 kPa, x1 = 0.0487 | – | 780
17190 kPa, x1 = 0.0247 | – | 731
17260 kPa, x1 = 0.0102 | 740 | –
17260 kPa, x1 = 0.0487 | 814 | –
17290 kPa, x1 = 0.0487 | – | 782
17300 kPa, x1 = 0.0102 | – | 773
17300 kPa, x1 = 0.0247 | 770 | –
17410 kPa, x1 = 0.0487 | – | 784
17440 kPa, x1 = 0.0487 | 817 | –
17450 kPa, x1 = 0.0247 | – | 737
17510 kPa, x1 = 0.0247 | 774 | –
17520 kPa, x1 = 0.1024 | 890 | –
17560 kPa, x1 = 0.0487 | – | 787
17590 kPa, x1 = 0.0487 | 819 | –
17680 kPa, x1 = 0.0247 | – | 742
17680 kPa, x1 = 0.0487 | – | 789
17680 kPa, x1 = 0.1024 | 892 | –
17730 kPa, x1 = 0.1024 | 892 | –
17750 kPa, x1 = 0.0487 | 821 | –
17800 kPa, x1 = 0.0247 | 779 | –
17800 kPa, x1 = 0.1024 | 893 | –
17810 kPa, x1 = 0.0487 | – | 791
17820 kPa, x1 = 0.0102 | – | 788
17890 kPa, x1 = 0.1024 | 894 | –
17920 kPa, x1 = 0.0487 | 824 | –
17940 kPa, x1 = 0.0487 | – | 794
17960 kPa, x1 = 0.1024 | 895 | –
18040 kPa, x1 = 0.1024 | 896 | –
18060 kPa, x1 = 0.0102 | 757 | –
18060 kPa, x1 = 0.0247 | – | 749
18090 kPa, x1 = 0.0487 | – | 797
18090 kPa, x1 = 0.1024 | 896 | –
18120 kPa, x1 = 0.0487 | 827 | –
18150 kPa, x1 = 0.1024 | 897 | –
18200 kPa, x1 = 0.0102 | – | 798
18200 kPa, x1 = 0.1024 | 897 | –
18210 kPa, x1 = 0.0487 | – | 799
18250 kPa, x1 = 0.1024 | 898 | –
18280 kPa, x1 = 0.0487 | 829 | –
18310 kPa, x1 = 0.1024 | 899 | –
18350 kPa, x1 = 0.0487 | – | 800
18400 kPa, x1 = 0.1024 | 900 | –
18470 kPa, x1 = 0.1024 | 900 | –
18480 kPa, x1 = 0.0487 | 832 | –
18510 kPa, x1 = 0.0487 | – | 804
18530 kPa, x1 = 0.1024 | 901 | –
18580 kPa, x1 = 0.1024 | 901 | –
18610 kPa, x1 = 0.0102 | – | 808
18620 kPa, x1 = 0.0102 | 769 | –
18620 kPa, x1 = 0.1024 | 902 | –
18670 kPa, x1 = 0.0487 | 835 | 806
18690 kPa, x1 = 0.1024 | 902 | –
18750 kPa, x1 = 0.1024 | 903 | –
18810 kPa, x1 = 0.0102 | – | 813
18820 kPa, x1 = 0.0487 | – | 809
18860 kPa, x1 = 0.0102 | 773 | –
18860 kPa, x1 = 0.0487 | 837 | –
18860 kPa, x1 = 0.1024 | 904 | –
18940 kPa, x1 = 0.1024 | 905 | –
18990 kPa, x1 = 0.0487 | – | 811
19040 kPa, x1 = 0.0487 | 840 | –
